Results as given in ChEMBL document CHEMBL2440080, “Synthesis and biological evaluation of novel acylhydrazone derivatives as potential antitumor agents” (Bioorg Med Chem, 2013).

What was measured:
[1] = test system: T47D; assay: Cytotoxicity against human T47D cells after 48 hrs by sulforhodamine B assay; format: functional
[2] = test system: MOLT-4; assay: Cytotoxicity against human MOLT4 cells after 48 hrs by sulforhodamine B assay; format: functional; conditions: MOLT-4, 48 h
[3] = test system: SNB-75; assay: Cytotoxicity against human SNB75 cells after 48 hrs by sulforhodamine B assay; format: functional; conditions: SNB-75, 48 h
[4] = test system: U-251; assay: Cytotoxicity against human U251 cells after 48 hrs by sulforhodamine B assay; format: functional; conditions: U-251, 48 h
[5] = test system: NCI-H322M; assay: Cytotoxicity against human NCI-H322M cells after 48 hrs by sulforhodamine B assay; format: functional
[6] = test system: NCI-H460; assay: Cytotoxicity against human NCI-H460 cells after 48 hrs by sulforhodamine B assay; format: functional; conditions: NCI-H460, 48 h
[7] = test system: OVCAR-4; assay: Cytotoxicity against human OVCAR4 cells after 48 hrs by sulforhodamine B assay; format: functional; conditions: OVCAR-4, 48 h
[8] = test system: HCT-116; assay: Cytotoxicity against human HCT116 cells after 48 hrs by sulforhodamine B assay; format: functional; conditions: HCT-116, 48 h
[9] = test system: HL-60(TB); assay: Cytotoxicity against human HL-60(TB) cells after 48 hrs by sulforhodamine B assay; format: functional; conditions: HL-60, 48 h
[10] = test system: OVCAR-3; assay: Cytotoxicity against human OVCAR3 cells after 48 hrs by sulforhodamine B assay; format: functional; conditions: OVCAR-3, 48 h
[11] = test system: UACC-62; assay: Cytotoxicity against human UACC62 cells after 48 hrs by sulforhodamine B assay; format: functional; conditions: UACC-62, 48 h
[12] = test system: Mus musculus; assay: Toxicity in athymic nude mouse assessed as survival at 400 mg/kg, ip measured after 2 weeks; format: organism-based; design: dose 400 mg/kg, route intraperitoneal; conditions: in vivo, 336 h
[13] = test system: CCRF-CEM; assay: Cytotoxicity against human CCRF-CEM cells after 48 hrs by sulforhodamine B assay; format: functional
[14] = test system: IGROV-1; assay: Cytotoxicity against human IGROV1 cells after 48 hrs by sulforhodamine B assay; format: functional; conditions: IGROV-1, 48 h
[15] = test system: M14; assay: Cytotoxicity against human M14 cells after 48 hrs by sulforhodamine B assay; format: functional; conditions: M14, 48 h
[16] = test system: HCT-15; assay: Cytotoxicity against human HCT15 cells after 48 hrs by sulforhodamine B assay; format: functional; conditions: HCT-15, 48 h
[17] = test system: OVCAR-8; assay: Cytotoxicity against human OVCAR8 cells after 48 hrs by sulforhodamine B assay; format: functional; conditions: OVCAR-8, 48 h
[18] = test system: HOP-62; assay: Cytotoxicity against human HOP62 cells after 48 hrs by sulforhodamine B assay; format: functional; conditions: HOP-62, 48 h
[19] = test system: CAKI-1; assay: Cytotoxicity against human CAKI-1 cells after 48 hrs by sulforhodamine B assay; format: functional; conditions: CAKI-1, 48 h
[20] = test system: KM12; assay: Cytotoxicity against human KM12 cells after 48 hrs by sulforhodamine B assay; format: functional; conditions: KM12, 48 h
[21] = test system: RPMI-8226; assay: Cytotoxicity against human RPMI8226 cells after 48 hrs by sulforhodamine B assay; format: functional; conditions: RPMI-8226, 48 h
[22] = Cytotoxicity against human EKVX cells after 48 hrs by sulforhodamine B assay; format: functional
[23] = test system: ACHN; assay: Cytotoxicity against human ACHN cells after 48 hrs by sulforhodamine B assay; format: functional
[24] = test system: PC-3; assay: Cytotoxicity against human PC3 cells after 48 hrs by sulforhodamine B assay; format: functional; conditions: PC-3, 48 h
[25] = test system: SF-268; assay: Cytotoxicity against human SF268 cells after 48 hrs by sulforhodamine B assay; format: functional; conditions: SF-268, 48 h
[26] = test system: SR; assay: Cytotoxicity against human SR cells after 48 hrs by sulforhodamine B assay; format: functional
[27] = test system: SF-295; assay: Cytotoxicity against human SF295 cells after 48 hrs by sulforhodamine B assay; format: functional; conditions: SF-295, 48 h
[28] = test system: HOP-92; assay: Cytotoxicity against human HOP92 cells after 48 hrs by sulforhodamine B assay; format: functional; conditions: HOP-92, 48 h
[29] = test system: LOX IMVI; assay: Cytotoxicity against human LOXIMVI cells after 48 hrs by sulforhodamine B assay; format: functional
[30] = test system: TK-10; assay: Cytotoxicity against human TK10 cells after 48 hrs by sulforhodamine B assay; format: functional; conditions: TK-10, 48 h
[31] = test system: RXF 393; assay: Cytotoxicity against human RXF393 cells after 48 hrs by sulforhodamine B assay; format: functional; conditions: RXF 393, 48 h
[32] = test system: NCI/ADR-RES; assay: Cytotoxicity against human NCI/ADR-RES cells after 48 hrs by sulforhodamine B assay; format: functional
[33] = test system: BT-549; assay: Cytotoxicity against human BT549 cells after 48 hrs by sulforhodamine B assay; format: functional; conditions: BT-549, 48 h
[34] = test system: DU-145; assay: Cytotoxicity against human DU145 cells after 48 hrs by sulforhodamine B assay; format: functional; conditions: DU-145, 48 h

Structure (SMILES) | GI50 [1] [nM] | GI50 [2] [nM] | GI50 [3] [nM] | GI50 [4] [nM] | GI50 [5] [nM] | GI50 [6] [nM] | GI50 [7] [nM] | GI50 [8] [nM] | GI50 [9] [nM] | GI50 [10] [nM] | GI50 [11] [nM] | Activity [12] | GI50 [13] [nM] | GI50 [14] [nM] | GI50 [15] [nM] | GI50 [16] [nM] | GI50 [17] [nM] | GI50 [18] [nM] | GI50 [19] [nM] | GI50 [20] [nM] | also measured
COc1ccc(C(=O)N/N=C/c2ccc(O)cc2O)cc1Nc1ccnc(C(F)(F)F)c1 | 794 | 398 | 794 | 398 | 501 | 3160 | 631 | 251 | 316 | 316 | 501 | Non-toxic | 251 | 631 | 794 | 2510 | 794 | 501 | 631 | 1580 | GI50 [21]: 2510 nM; GI50 [22]: 398 nM; GI50 [23]: 2510 nM; GI50 [24]: 631 nM; GI50 [25]: 316 nM; GI50 [26]: 158 nM; GI50 [27]: 794 nM; GI50 [28]: 316 nM; GI50 [29]: 501 nM; GI50 [30]: 501 nM; GI50 [31]: 10 µM; GI50 [32]: 7940 nM; GI50 [33]: 501 nM; GI50 [34]: 631 nM
CCOc1cccc(/C=N/NC(=O)c2ccccc2Nc2ccnc(C(F)(F)F)c2)c1O | 794 | 126 | 398 | 398 | 398 | 251 | 251 | 316 | 251 | 316 | 501 | Non-toxic | 251 | 39.8 | 631 | 251 | 501 | 501 | 251 | 501 | GI50 [21]: 251 nM; GI50 [22]: 251 nM; GI50 [23]: 316 nM; GI50 [24]: 200 nM; GI50 [25]: 794 nM; GI50 [26]: 63.1 nM; GI50 [27]: 501 nM; GI50 [28]: 158 nM; GI50 [29]: 200 nM; GI50 [30]: 631 nM; GI50 [31]: 12.6 µM; GI50 [32]: 631 nM; GI50 [33]: 398 nM; GI50 [34]: 794 nM
O=C(N/N=C/c1ccccc1O)c1ccccc1Nc1ccnc(C(F)(F)F)c1 | 1260 | 316 | 316 | 501 | 398 | 251 | 251 | 398 | 398 | 316 | 398 | Non-toxic | 200 | 15.8 | 501 | 200 | 501 | 398 | 316 | 398 | GI50 [21]: 200 nM; GI50 [22]: 316 nM; GI50 [23]: 398 nM; GI50 [24]: 126 nM; GI50 [25]: 631 nM; GI50 [26]: 50.1 nM; GI50 [27]: 501 nM; GI50 [28]: 158 nM; GI50 [29]: 316 nM; GI50 [30]: 501 nM; GI50 [31]: 0.0631 µM; GI50 [32]: 398 nM; GI50 [33]: 631 nM; GI50 [34]: 631 nM
